Experimental data published in patent US12145899B2, “Deuterated analogs of acetyl-leucine” (INTRABIO LTD., priority 2018, dated 2024).

Tests used:
[1] = Pharmacokinetic study, plasma concentration after p.o. administration; assay type: in vivo, male BALB/c mice; conditions: for AUC(0-t) / Cmax: male, BALB/c, mouse, plasma, po, 100 mg/kg, male BALB/c mice; for ratio for AUClast, deuterated analyte/non-deuterated analyte / ratio for Cmax, deuterated analyte/non-deuterated analyte: mice
Experimental: Acetyl-leucine, acetyl-L-leucine, acetyl-leucine-2,3,3,4-d4 (1-rac), and acetyl-L-leucine-2,3,3,4-d4 (1) were administered to male BALB/c mice via the oral (p.o) route. Plasma and tissue samples were collected at predetermined time points and analysed using HR/MS.

NPC CHO cells = assay: NPC cellular phenotype assay: lysosomal volume by LysoTracker flow cytometry; assay type: cell-based, Chinese Hamster; conditions: for LysoTracker fluorescence, fold change relative to untreated samples (normalised as 1.0): NPC CHO cells, treated 7 days, Mean±SD, n=3, concentration of the compared values not printed in the legend (b616 names 1 mM)
Experimental: FIG. 1 is a line graph showing the effect of acetyl-leucine (referred to as IB1000) and acetyl-leucine-2,3,3,4-d4 (referred to as DIB1000) in a NPC cellular phenotype assay. NPC CHO cells were treated with 1, 10, 100, 1000, and 5000 μM of acetyl-leucine or acetyl-leucine-2,3,3,4-d4 for 7 days. Data shown is Mean±SD of 1-3 biological repeats. LysoTracker fluorescence is expressed as fold change relative to responses obtained from untreated samples (normalised as 1.0). Acetyl-leucine; 0.79±0.05, Acetyl-leucine-2,3,3,4-d4; 0.45±0.03, unpaired t test, Two-tailed test, **p<0.01, n=3. The technique applied in the present study is described in te Vruchte et al., J. Clin. Invest. 3:1320-1328 (2014). Briefly, human fibroblasts from patients with Tay-Sachs Disease, AB Variant were purchased from the NINDS Human Genetic Repository at the Coriell Institute, 403 Haddon Avenue, Camden, N.J., 08103, USA. Fibroblasts or Chinese Hamster Ovary cells were grown in T75 culture flasks, treated for 7 days with compounds, trypsinized, centrifuged (180 g, 5 min), washed twice with 1×PBS, centrifuged again and were stained with 1 ml of 100 nM LysoTracker-green DND-26 (Invitrogen) in PBS (10 min, in dark). Following incubation, cells were centrifuged (800 g, 5 min), resuspended in 0.5 ml of FACS buffer (0.1% BSA, 0.02 M NaN3 in 1×PBS) and kept on ice for a maximum of 1 h prior to flow cytometric analysis (BD Biosciences FACSCanto II or Accuri C6 Plus). The cytometer was calibrated using Cytometer Setup and Tracking beads (BD), and compensation was performed using cells stained with Lysotracker or Propidium Iodide using BD FACSDiva software (BD) or BD Accuri C6 Plus software (BD).

[2] = system: Tay-Sachs, AB Variant patient-derived fibroblast cells; assay: Tay-Sachs AB human fibroblast cell assay: lysosomal volume by LysoTracker flow cytometry; assay type: cell-based; conditions: for LysoTracker signal relative to untreated (1.00): Tay-Sachs AB Variant fibroblasts, 1 mM, 7 days, n=3
Experimental: FIG. 2 is bar graph showing the effect of acetyl-leucine (referred to as IB1000) and acetyl-leucine-2,3,3,4-d4 (referred to as DIB1000) in a Tay-Sachs AB human fibroblast cell assay. Tay-Sachs, AB Variant patient-derived fibroblast cells were treated with 1 mM acetyl-leucine or acetyl-leucine-2,3,3,4-d4 to compare LysoTracker signals. Untreated; 1.00±0.02, n=3, Acetyl-leucine; 0.97±0.01, n=3, Acetyl-leucine-2,3,3,4-d4; 0.91±0.02, n=3. One-way ANOVA was conducted for statistical analysis. */**p<0.003/0.02. The technique applied in the present study is described in te Vruchte et al., J. Clin. Invest. 3:1320-1328 (2014). Briefly, human fibroblasts from patients with Tay-Sachs Disease, AB Variant were purchased from the NINDS Human Genetic Repository at the Coriell Institute, 403 Haddon Avenue, Camden, N.J., 08103, USA. Fibroblasts or Chinese Hamster Ovary cells were grown in T75 culture flasks, treated for 7 days with compounds, trypsinized, centrifuged (180 g, 5 min), washed twice with 1×PBS, centrifuged again and were stained with 1 ml of 100 nM LysoTracker-green DND-26 (Invitrogen) in PBS (10 min, in dark). Following incubation, cells were centrifuged (800 g, 5 min), resuspended in 0.5 ml of FACS buffer (0.1% BSA, 0.02 M NaN3 in 1×PBS) and kept on ice for a maximum of 1 h prior to flow cytometric analysis (BD Biosciences FACSCanto II or Accuri C6 Plus). The cytometer was calibrated using Cytometer Setup and Tracking beads (BD), and compensation was performed using cells stained with Lysotracker or Propidium Iodide using BD FACSDiva software (BD) or BD Accuri C6 Plus software (BD).

[3] = plasma analyte after p.o. acetyl-L-leucine 100 mg/kg
[4] = plasma analyte after p.o. acetyl-leucine 100 mg/kg
[5] = deuterated or non-deuterated acetyl-L-leucine administered p.o. 100 mg/kg
[6] = deuterated or non-deuterated acetyl-leucine (racemate) administered p.o. 100 mg/kg
[7] = plasma analyte after p.o. acetyl-L-leucine-2,3,3,4-d4 (1) 100 mg/kg in saline
[8] = plasma analyte after p.o. acetyl-L-leucine-2,3,3,4-d4 (1) 100 mg/kg
[9] = plasma analyte after p.o. acetyl-leucine-2,3,3,4-d4 (1-rac) 100 mg/kg in saline
[10] = plasma analyte after p.o. acetyl-leucine-2,3,3,4-d4 (1-rac) 100 mg/kg

| SMILES | AUC(0-t) [1, 3] [ng·h/mL] | AUC(0-t) [1, 4] [ng·h/mL] | LysoTracker fluorescence, fold change relative to untreated samples (normalised as 1.0) (NPC CHO cells) [fold change] | LysoTracker signal relative to untreated (1.00) [2] | ratio for AUClast, deuterated analyte/non-deuterated analyte [1, 5] | ratio for Cmax, deuterated analyte/non-deuterated analyte [1, 5] | ratio for AUClast, deuterated analyte/non-deuterated analyte [1, 6] | ratio for Cmax, deuterated analyte/non-deuterated analyte [1, 6] | Cmax [1, 7] [ng/mL] | AUC(0-t) [1, 8] [ng·h/mL] | Cmax [1, 9] [ng/mL] | AUC(0-t) [1, 10] [ng·h/mL] | further results |
| --- | --- | --- | --- | --- | --- | --- | --- | --- | --- | --- | --- | --- | --- |
| CC(=O)N[C@H](CC(C)C)C(=O)O [acetyl-D-leucine, N-acetyl-D-leucine, reference compound] | 573 | 57800 |  |  |  |  |  |  |  |  |  |  |  |
| CC(=O)N[C@@H](CC(C)C)C(=O)O [acetyl-L-leucine, N-acetyl-L-leucine, reference compound] | 11400 | 2600 |  |  |  |  |  |  |  |  |  |  |  |
| CC(=O)NC(CC(C)C)C(=O)O (racemic) [acetyl-leucine, N-acetyl-DL-leucine] |  |  | 0.79±0.05 | 0.97±0.01 |  |  |  |  |  |  |  |  |  |
| [2H]C(C)(C)C([2H])([2H])[C@@]([2H])(NC(C)=O)C(=O)O [acetyl-D-leucine-2,3,3,4-d4] |  |  |  |  | 5.50 | 7.40 | 1.72 | 0.59 | 3230 | 3150 | 50600 | 99600 |  |
| [2H]C(C)(C)C([2H])([2H])[C@]([2H])(NC(C)=O)C(=O)O [acetyl-L-leucine-2,3,3,4-d4, Acetyl-L-leucine-2,3,3,4-d4] |  |  |  |  | 1.61 | 1.75 | 1.32 | 1.14 | 29300 | 18200 | 3880 | 3430 |  |
| [2H]C(C)(C)C([2H])([2H])[C@]([2H])(NC(C)=O)C(=O)O (racemic) [acetyl-leucine-2,3,3,4-d4, Acetyl-leucine-2,3,3,4-d4] |  |  | 0.45±0.03 | 0.91±0.02 |  |  |  |  |  |  |  |  | LysoTracker fluorescence level compared to acetyl-leucine (NPC CHO cells; NPC CHO cell line, 1 mM vs 1 mM acetyl-leucine): significant reduction; LysoTracker fluorescence level compared to acetyl-leucine ([2]; Tay-Sachs AB Variant human fibroblast cell line, 1 mM vs 1 mM acetyl-leucine): significant reduction |
